# Tests used:
# Experiment in all cases: cells
# Assay type in all cases: functional, cell-based, Homo sapiens
# [1] = system: DEL; conditions: Homo sapiens, DEL;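 further: growth inhibition of the human DEL cell line, read out with a cell viability assay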
# Description: SANGER: Inhibition of human DEL cell growth in a cell viability assay.
# [2] = system: COLO-829; conditions: Homo sapiens, COLO-829
# Description: SANGER: Inhibition of human COLO-829 cell growth in a cell viability assay.
# [3] = system: MFH-ino; conditions: Homo sapiens, MFH-ino;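 further: growth inhibition of human MFH-ino cells, read out by a cell viability assay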
# Description: SANGER: Inhibition of human MFH-ino cell growth in a cell viability assay.
# [4] = system: KARPAS-45; conditions: Homo sapiens, KARPAS-45;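 further: inhibition of cell line growth, read out through a viability assay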
# Description: SANGER: Inhibition of human KARPAS-45 cell growth in a cell viability assay.
# [5] = system: EW-18; conditions: Homo sapiens, EW-18;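 further: growth inhibition of EW-18 cells, read out by a cell viability assay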
# Description: SANGER: Inhibition of human EW-18 cell growth in a cell viability assay.
# [6] = system: RXF 393; conditions: Homo sapiens, RXF 393;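 further: growth inhibition of human RXF 393 cells, read out with a cell viability assay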
# Description: SANGER: Inhibition of human RXF393 cell growth in a cell viability assay.
# [7] = system: COLO-320-HSR; conditions: Homo sapiens, COLO-320-HSR;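 further: growth inhibition of COLO-320-HSR cells, determined with a cell viability assay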
# Description: SANGER: Inhibition of human COLO-320-HSR cell growth in a cell viability assay.
# [8] = system: NCI-H1355; conditions: Homo sapiens, NCI-H1355;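 further: growth inhibition of human NCI-H1355 cells, read out by a cell viability assay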
# Description: SANGER: Inhibition of human NCI-H1355 cell growth in a cell viability assay.
# [9] = system: MN-60; conditions: Homo sapiens, MN-60;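 further: growth inhibition of the MN-60 cell line, determined with a cell viability assay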
# Description: SANGER: Inhibition of human MN-60 cell growth in a cell viability assay.
# [10] = system: no-10; conditions: Homo sapiens;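 further: growth inhibition of no-10 cells, read out with a cell viability assay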
# Description: SANGER: Inhibition of human no-10 cell growth in a cell viability assay.
# [11] = system: KINGS-1; conditions: Homo sapiens, KINGS-1;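 further: cell viability assay measuring suppression of KINGS-1 cell growth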
# Description: SANGER: Inhibition of human KINGS-1 cell growth in a cell viability assay.
# [12] = system: J-RT3-T3-5; conditions: Homo sapiens, J-RT3-T3-5;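 further: cell viability assay measuring growth inhibition of human J-RT3-T3-5 cells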
# Description: SANGER: Inhibition of human J-RT3-T3-5 cell growth in a cell viability assay.
# [13] = system: HCC1187; conditions: Homo sapiens, HCC1187;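 further: growth inhibition of HCC1187 cells, read out with a cell viability assay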
# Description: SANGER: Inhibition of human HCC1187 cell growth in a cell viability assay.
# [14] = system: CCRF-CEM; conditions: Homo sapiens, CCRF-CEM;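 further: inhibition of CCRF-CEM cell growth, measured by a cell viability assay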
# Description: SANGER: Inhibition of human CCRF-CEM cell growth in a cell viability assay.
# [15] = system: A704; conditions: Homo sapiens, A704;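 further: growth inhibition of human A704 cells, read out with a cell viability assay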
# Description: SANGER: Inhibition of human A704 cell growth in a cell viability assay.
# [16] = system: HT-144; conditions: Homo sapiens, HT-144
# Description: SANGER: Inhibition of human HT-144 cell growth in a cell viability assay.
# [17] = system: HCC2218; conditions: Homo sapiens, HCC2218;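 further: cell viability assay read-out, with IC50 given as the concentration that inhibits growth of the cell line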
# Description: SANGER: Inhibition of human HCC2218 cell growth in a cell viability assay.
# [18] = system: JVM-3; conditions: Homo sapiens, JVM-3;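 further: growth inhibition of human JVM-3 cells, read out with a cell viability assay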
# Description: SANGER: Inhibition of human JVM-3 cell growth in a cell viability assay.
# [19] = system: KE-37; conditions: Homo sapiens, KE-37;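 further: growth inhibition of KE-37 cells, read out with a cell viability assay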
# Description: SANGER: Inhibition of human KE-37 cell growth in a cell viability assay.
# [20] = system: MOLT-16; conditions: Homo sapiens, MOLT-16;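 further: growth inhibition of human MOLT-16 cells, read out with a cell viability assay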
# Description: SANGER: Inhibition of human MOLT-16 cell growth in a cell viability assay.
# [21] = system: RKO; conditions: Homo sapiens, RKO;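 further: growth inhibition of human RKO cells, read out with a cell viability assay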
# Description: SANGER: Inhibition of human RKO cell growth in a cell viability assay.
# [22] = system: NB5; conditions: Homo sapiens, NB5;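 further: growth inhibition of NB5 cells, read out as cell viability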
# Description: SANGER: Inhibition of human NB5 cell growth in a cell viability assay.
# [23] = system: Ramos-2G6-4C10; conditions: Homo sapiens, Ramos-2G6-4C10;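 further: growth inhibition of the cell line, measured by a cell viability read-out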
# Description: SANGER: Inhibition of human Ramos-2G6-4C10 cell growth in a cell viability assay.
# [24] = system: GR-ST; conditions: Homo sapiens, GR-ST
# Description: SANGER: Inhibition of human GR-ST cell growth in a cell viability assay.
# [25] = system: KGN; conditions: Homo sapiens, KGN;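 further: growth inhibition of KGN cells, read out with a cell viability assay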
# Description: SANGER: Inhibition of human KGN cell growth in a cell viability assay.
# [26] = system: MMAC-SF; conditions: Homo sapiens, MMAC-SF;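 further: growth inhibition of human MMAC-SF cells, read out with a cell viability assay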
# Description: SANGER: Inhibition of human MMAC-SF cell growth in a cell viability assay.
# [27] = system: BB30-HNC; conditions: Homo sapiens, BB30-HNC;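 further: growth inhibition of the cultured cell line, read out by a cell viability assay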
# Description: SANGER: Inhibition of human BB30-HNC cell growth in a cell viability assay.
# [28] = system: NCI-H1648; conditions: Homo sapiens, NCI-H1648;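 further: cell viability assay measuring inhibition of NCI-H1648 cell growth, from the Sanger screening data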
# Description: SANGER: Inhibition of human NCI-H1648 cell growth in a cell viability assay.
# [29] = system: ES4; conditions: Homo sapiens, ES4;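 further: growth inhibition of human ES4 cells, read out by a cell viability assay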
# Description: SANGER: Inhibition of human ES4 cell growth in a cell viability assay.
# [30] = system: LS-1034; conditions: Homo sapiens, LS-1034
# Description: SANGER: Inhibition of human LS-1034 cell growth in a cell viability assay.
# [31] = system: A101D; conditions: Homo sapiens, A101D;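 further: growth inhibition of the cell line, measured with a viability assay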
# Description: SANGER: Inhibition of human A101D cell growth in a cell viability assay.
# [32] = system: EKVX; conditions: Homo sapiens, EKVX;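 further: growth inhibition of human EKVX cells, read out with a cell viability assay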
# Description: SANGER: Inhibition of human EKVX cell growth in a cell viability assay.
# [33] = system: LB373-MEL-D; conditions: Homo sapiens, LB373-MEL-D;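 further: growth inhibition of the cell line, read out in a cell viability assay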
# Description: SANGER: Inhibition of human LB373-MEL-D cell growth in a cell viability assay.
# [34] = system: DB; conditions: Homo sapiens, DB
# Description: SANGER: Inhibition of human DB cell growth in a cell viability assay.
# [35] = system: EW-24; conditions: Homo sapiens, EW-24;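 further: human EW-24 cancer cell line, growth inhibition read out via a cell viability assay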
# Description: SANGER: Inhibition of human EW-24 cell growth in a cell viability assay.
# [36] = system: NOMO-1; conditions: Homo sapiens, NOMO-1;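 further: growth inhibition of human NOMO-1 cells measured by a cell viability assay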
# Description: SANGER: Inhibition of human NOMO-1 cell growth in a cell viability assay.
# [37] = system: IST-SL1; conditions: Homo sapiens, IST-SL1;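 further: growth inhibition of human IST-SL1 cells, read out with a cell viability assay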
# Description: SANGER: Inhibition of human IST-SL1 cell growth in a cell viability assay.
# [38] = system: SNU1; conditions: Homo sapiens, SNU1;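 further: growth inhibition of human NCI-SNU-1 cells, measured with a cell viability assay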
# Description: SANGER: Inhibition of human NCI-SNU-1 cell growth in a cell viability assay.
# [39] = system: KALS-1; conditions: Homo sapiens, KALS-1;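 further: growth inhibition of KALS-1 cells, determined with a cell viability assay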
# Description: SANGER: Inhibition of human KALS-1 cell growth in a cell viability assay.
# [40] = system: DOHH-2; conditions: Homo sapiens, DOHH-2;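 further: growth inhibition of human DOHH-2 cells, read out with a cell viability assay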
# Description: SANGER: Inhibition of human DOHH-2 cell growth in a cell viability assay.
# [41] = system: A253 cell line; conditions: Homo sapiens, A253;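 further: growth inhibition of A253 cells, read out with a cell viability assay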
# Description: SANGER: Inhibition of human A253 cell growth in a cell viability assay.
# [42] = system: D-392MG; conditions: Homo sapiens, D-392MG
# [43] = system: SNB-75; conditions: Homo sapiens, SNB-75;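 further: cell viability assay measuring growth inhibition of human SNB-75 cells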
# Description: SANGER: Inhibition of human SNB75 cell growth in a cell viability assay.
# [44] = system: EC-GI-10; conditions: Homo sapiens, EC-GI-10
# Description: SANGER: Inhibition of human EC-GI-10 cell growth in a cell viability assay.
# [45] = system: NCI-H1581; conditions: Homo sapiens, NCI-H1581;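 further: cell growth inhibition read out by a viability assay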
# Description: SANGER: Inhibition of human NCI-H1581 cell growth in a cell viability assay.
# [46] = system: RH-1; conditions: Homo sapiens, RH-1;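 further: growth inhibition of human RH-1 cells, read out with a cell viability assay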
# Description: SANGER: Inhibition of human RH-1 cell growth in a cell viability assay.
# [47] = system: C2BBe1; conditions: Homo sapiens, C2BBe1;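 further: growth inhibition of C2BBe1 cells, read out through a viability assay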
# Description: SANGER: Inhibition of human C2BBe1 cell growth in a cell viability assay.
# [48] = system: SW684; conditions: Homo sapiens, SW684;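 further: growth inhibition of human SW684 cells, measured by a cell viability assay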
# Description: SANGER: Inhibition of human SW684 cell growth in a cell viability assay.
# [49] = system: SF-268; conditions: Homo sapiens, SF-268;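 further: growth inhibition of SF-268 cells determined with a cell viability assay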
# Description: SANGER: Inhibition of human SF268 cell growth in a cell viability assay.
compound,measurement,setting,value
CCC/C=C/C=C/C(=O)O[C@H]1/C(=C/C(=O)OC)C[C@H]2C[C@H]([C@@H](C)O)OC(=O)C[C@H](O)C[C@@H]3C[C@H](OC(C)=O)C(C)(C)[C@](O)(C[C@@H]4C/C(=C/C(=O)OC)C[C@H](/C=C/C(C)(C)[C@]1(O)O2)O4)O3 [BRYOSTATIN 1],IC50,[1],> 0.008 µM
same,IC50,[2],> 0.008 µM
same,IC50,[3],> 0.008 µM
same,IC50,[4],> 0.008 µM
same,IC50,[5],> 0.008 µM
same,IC50,[6],> 0.008 µM
same,IC50,[7],> 0.008 µM
same,IC50,[8],> 0.008 µM
same,IC50,[9],> 0.008 µM
same,IC50,[10],> 0.008 µM
same,IC50,[11],> 0.008 µM
same,IC50,[12],> 0.008 µM
same,IC50,[13],> 0.008 µM
same,IC50,[14],> 0.008 µM
same,IC50,[15],> 0.008 µM
same,IC50,[16],> 0.008 µM
same,IC50,[17],> 0.008 µM
same,IC50,[18],> 0.008 µM
same,IC50,[19],> 0.008 µM
same,IC50,[20],> 0.008 µM
same,IC50,[21],> 0.008 µM
same,IC50,[22],> 0.008 µM
same,IC50,[23],> 0.008 µM
same,IC50,[24],> 0.008 µM
same,IC50,[25],> 0.008 µM
same,IC50,[26],> 0.008 µM
same,IC50,[27],> 0.008 µM
same,IC50,[28],> 0.008 µM
same,IC50,[29],> 0.008 µM
same,IC50,[30],> 0.008 µM
same,IC50,[31],> 0.008 µM
same,IC50,[32],> 0.008 µM
same,IC50,[33],> 0.008 µM
same,IC50,[34],> 0.008 µM
same,IC50,[35],> 0.008 µM
same,IC50,[36],> 0.008 µM
same,IC50,[37],> 0.008 µM
same,IC50,[38],> 0.008 µM
same,IC50,[39],> 0.008 µM
same,IC50,[40],> 0.008 µM
same,IC50,[41],> 0.008 µM
same,IC50,[42],> 0.008 µM
same,IC50,[43],> 0.008 µM
same,IC50,[44],> 0.008 µM
same,IC50,[45],> 0.008 µM
same,IC50,[46],> 0.008 µM
same,IC50,[47],> 0.008 µM
same,IC50,[48],> 0.008 µM
same,IC50,[49],> 0.008 µM
Oc1ccc2ccccc2c1SSc1c(O)ccc2ccccc12,IC50,[1],9.64 µM
same,IC50,[2],> 32 µM
same,IC50,[3],> 32 µM
same,IC50,[4],12.8 µM
same,IC50,[5],> 32 µM
same,IC50,[6],> 32 µM
same,IC50,[7],> 32 µM
same,IC50,[8],> 32 µM
same,IC50,[9],> 32 µM
same,IC50,[10],> 32 µM
same,IC50,[11],> 32 µM
same,IC50,[12],> 32 µM
same,IC50,[13],> 32 µM
same,IC50,[14],5.98 µM
same,IC50,[15],> 32 µM
same,IC50,[16],> 32 µM
same,IC50,[17],> 32 µM
same,IC50,[18],> 32 µM
same,IC50,[19],3.5 µM
same,IC50,[20],> 32 µM
same,IC50,[21],5.28 µM
same,IC50,[22],> 32 µM
same,IC50,[23],> 32 µM
same,IC50,[24],11 µM
same,IC50,[25],12.4 µM
same,IC50,[26],> 32 µM
same,IC50,[27],> 32 µM
same,IC50,[28],> 32 µM
same,IC50,[29],26.3 µM
same,IC50,[30],> 32 µM
same,IC50,[31],> 32 µM
same,IC50,[32],> 32 µM
same,IC50,[33],> 32 µM
same,IC50,[34],12.7 µM
same,IC50,[35],> 32 µM
same,IC50,[36],> 32 µM
same,IC50,[37],> 32 µM
same,IC50,[38],> 32 µM
same,IC50,[39],> 32 µM
same,IC50,[40],> 32 µM
same,IC50,[41],> 32 µM
same,IC50,[42],> 32 µM
same,IC50,[43],> 32 µM
same,IC50,[44],> 32 µM
same,IC50,[45],> 32 µM
same,IC50,[46],27.8 µM
same,IC50,[47],> 32 µM
same,IC50,[48],> 32 µM
same,IC50,[49],> 32 µM

# From ChEMBL document CHEMBL1201861, “Genomics of Drug Sensitity in Cancer screening data, Wellcome Trust Sanger Institute”
